# Measurements: patent US10150728B2, “Alkylene derivatives” (Shionogi & Co., Ltd., priority 2013, dated 2018)
# Molecular target: recombinant human ACC2 (Homo sapiens (Human), UniProt O00763)
# Assay: Measurement of inhibitory activity on human ACC2 (MALDI-TOF MS, acetyl CoA to malonyl CoA conversion)
# Format: biochemical
# Conditions: Tables 155-159
# How it was run: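 His-tagged human ACC2 (residues 27–2458) from baculovirus-infected Sf-9 cells was preincubated 1 h in pH 7.4 HEPES-KOH buffer with MgCl2, 6-10 mM potassium citrate, glutathione and BSA. Substrate solution held 1 mM ATP, 0.8 mM acetyl CoA and 25-50 mM bicarbonate. After 1–3 h at room temperature, malonyl CoA/(malonyl+acetyl CoA) was read by negative-mode MALDI-TOF MS; citrate, bicarbonate and time varied by enzyme lot.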
# Sequence of recombinant human ACC2 (O00763 27-2458): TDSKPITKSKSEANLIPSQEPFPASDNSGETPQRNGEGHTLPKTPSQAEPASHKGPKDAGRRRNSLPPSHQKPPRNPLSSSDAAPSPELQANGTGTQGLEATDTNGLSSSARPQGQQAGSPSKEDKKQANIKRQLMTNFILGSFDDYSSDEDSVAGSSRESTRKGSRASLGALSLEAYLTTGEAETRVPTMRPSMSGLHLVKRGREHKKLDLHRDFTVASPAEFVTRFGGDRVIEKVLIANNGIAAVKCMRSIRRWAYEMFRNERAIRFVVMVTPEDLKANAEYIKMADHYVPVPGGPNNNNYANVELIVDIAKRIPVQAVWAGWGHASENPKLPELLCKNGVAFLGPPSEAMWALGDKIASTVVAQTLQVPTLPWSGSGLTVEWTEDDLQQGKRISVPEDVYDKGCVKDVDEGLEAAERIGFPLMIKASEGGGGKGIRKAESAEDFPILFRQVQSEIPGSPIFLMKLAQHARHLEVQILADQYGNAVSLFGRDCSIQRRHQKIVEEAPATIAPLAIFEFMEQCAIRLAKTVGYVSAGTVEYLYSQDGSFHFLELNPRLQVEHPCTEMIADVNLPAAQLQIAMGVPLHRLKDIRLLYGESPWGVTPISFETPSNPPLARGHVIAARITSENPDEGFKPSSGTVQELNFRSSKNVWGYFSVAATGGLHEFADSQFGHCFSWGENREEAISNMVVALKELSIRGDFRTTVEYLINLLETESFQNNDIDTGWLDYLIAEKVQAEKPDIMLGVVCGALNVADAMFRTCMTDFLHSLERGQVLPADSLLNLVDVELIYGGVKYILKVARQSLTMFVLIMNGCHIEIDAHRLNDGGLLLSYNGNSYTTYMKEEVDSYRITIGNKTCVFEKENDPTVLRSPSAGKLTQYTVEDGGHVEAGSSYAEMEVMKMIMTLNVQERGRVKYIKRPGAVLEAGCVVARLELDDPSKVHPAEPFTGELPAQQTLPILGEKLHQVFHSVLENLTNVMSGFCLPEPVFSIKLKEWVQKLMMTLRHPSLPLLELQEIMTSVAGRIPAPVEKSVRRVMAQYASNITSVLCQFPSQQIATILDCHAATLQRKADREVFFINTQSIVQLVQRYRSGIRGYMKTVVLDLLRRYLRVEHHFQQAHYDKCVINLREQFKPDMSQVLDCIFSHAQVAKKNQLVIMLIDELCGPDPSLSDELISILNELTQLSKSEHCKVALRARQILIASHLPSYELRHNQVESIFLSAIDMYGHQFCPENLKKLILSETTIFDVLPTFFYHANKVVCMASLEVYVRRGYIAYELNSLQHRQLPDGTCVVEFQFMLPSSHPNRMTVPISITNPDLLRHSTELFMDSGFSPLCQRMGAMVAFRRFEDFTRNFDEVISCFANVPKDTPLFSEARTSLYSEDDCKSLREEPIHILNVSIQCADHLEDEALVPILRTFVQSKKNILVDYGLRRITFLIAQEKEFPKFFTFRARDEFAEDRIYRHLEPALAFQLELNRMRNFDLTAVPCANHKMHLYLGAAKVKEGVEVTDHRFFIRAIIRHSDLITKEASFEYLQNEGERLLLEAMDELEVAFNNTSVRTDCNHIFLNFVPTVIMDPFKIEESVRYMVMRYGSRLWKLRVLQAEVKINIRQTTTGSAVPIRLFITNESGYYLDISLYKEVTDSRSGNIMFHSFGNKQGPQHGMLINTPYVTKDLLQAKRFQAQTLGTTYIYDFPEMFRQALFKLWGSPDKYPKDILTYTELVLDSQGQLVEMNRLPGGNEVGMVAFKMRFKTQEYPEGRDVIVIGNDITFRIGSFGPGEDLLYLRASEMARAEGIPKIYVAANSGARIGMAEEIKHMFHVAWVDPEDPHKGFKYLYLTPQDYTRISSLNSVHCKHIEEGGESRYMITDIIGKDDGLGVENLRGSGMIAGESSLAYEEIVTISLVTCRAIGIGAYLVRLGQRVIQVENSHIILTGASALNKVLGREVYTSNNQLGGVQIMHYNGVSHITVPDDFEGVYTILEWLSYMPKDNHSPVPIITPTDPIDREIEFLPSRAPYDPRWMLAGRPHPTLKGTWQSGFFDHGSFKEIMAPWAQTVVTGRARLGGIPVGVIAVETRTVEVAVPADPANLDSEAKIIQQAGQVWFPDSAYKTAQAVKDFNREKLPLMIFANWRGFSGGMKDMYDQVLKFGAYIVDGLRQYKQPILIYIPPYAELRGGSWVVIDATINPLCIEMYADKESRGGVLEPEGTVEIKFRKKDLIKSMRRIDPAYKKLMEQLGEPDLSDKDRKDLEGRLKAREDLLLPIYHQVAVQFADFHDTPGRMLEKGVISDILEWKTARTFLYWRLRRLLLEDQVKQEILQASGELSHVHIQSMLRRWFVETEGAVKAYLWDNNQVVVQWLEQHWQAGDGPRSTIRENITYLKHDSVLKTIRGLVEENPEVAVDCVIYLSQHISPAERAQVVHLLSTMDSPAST
row,IC50,Compound
1,43 nM,CC(=O)N[C@@H](C)CO[C@H]1C[C@H](COc2ncnc(OCc3ccc(C)cn3)c2Cl)C1 [Compound I-403]
2,676 nM,COc1cccc(COc2ncnc(OC[C@H]3C[C@H](OC[C@H](C)NC(C)=O)C3)c2Cl)n1 [Compound I-404]
3,62 nM,CC(=O)N[C@@H](C)CO[C@H]1C[C@H](COc2ncnc(OCc3ncccc3F)c2Cl)C1 [Compound I-405]
4,131 nM,CC(=O)N[C@@H](C)CO[C@H]1C[C@H](COc2ncnc(OCc3cnccn3)c2Cl)C1 [Compound I-406]
5,533 nM,CCOc1ccc(COc2ncnc(OC[C@H]3C[C@H](OC[C@H](C)NC(C)=O)C3)c2Cl)cc1 [Compound I-407]
6,465 nM,CCOc1cccc(COc2ncnc(OC[C@H]3C[C@H](OC[C@H](C)NC(C)=O)C3)c2Cl)c1 [Compound I-408]
7,74 nM,CC(=O)N[C@@H](C)CO[C@H]1C[C@H](COc2ncnc(OCc3nccs3)c2Cl)C1 [Compound I-409]
8,15 nM,CC(=O)N[C@@H](C)CO[C@H]1C[C@H](COc2ncnc(OCc3ncc(C)s3)c2Cl)C1 [Compound I-410]
9,937 nM,CC(=O)N[C@@H](C)CO[C@H]1C[C@H](COc2ncnc(OCc3csc(Cl)n3)c2Cl)C1 [Compound I-411]
10,42 nM,CC(=O)N[C@@H](C)CO[C@H]1C[C@H](COc2ncnc(OCc3cscn3)c2Cl)C1 [Compound I-412]
11,84 nM,CC(=O)N[C@@H](C)CO[C@H]1C[C@H](COc2nccc(N(C)Cc3ccccc3)c2Cl)C1 [Compound I-413]
12,59 nM,CC(=O)N[C@@H](C)CO[C@H]1C[C@H](COc2nccc(N3CCCC3C)c2Cl)C1 (some centres unmarked) [Compound I-414]
13,18 nM,CC(=O)N[C@@H](C)CO[C@H]1C[C@H](COc2ncnc(OCc3ccccc3)c2C)C1 [Compound I-415]
14,90 nM,CC(=O)N[C@@H](C)CO[C@H]1C[C@H](COc2ncnc(/C=C/c3ccccc3)c2C)C1 [Compound I-416]
15,451 nM,CC(=O)N[C@@H](C)CO[C@H]1C[C@H](COc2ncnc(-c3ccc(F)cc3)c2C)C1 [Compound I-417]
16,733 nM,CC(=O)N[C@@H](C)CO[C@H]1C[C@H](COc2ncnc(-c3ccc(C(F)(F)F)cc3)c2C)C1 [Compound I-418]
17,109 nM,CC(=O)N[C@@H](C)CO[C@H]1C[C@H](COc2ncnc(C3=CCCCC3)c2C)C1 [Compound I-419]
18,447 nM,COc1ccc(-c2ncnc(OC[C@H]3C[C@H](OC[C@H](C)NC(C)=O)C3)c2C)cc1 [Compound I-420]
19,24 nM,CC(=O)N[C@@H](C)CO[C@H]1C[C@H](COc2ncnc(OCC3CC3)c2C)C1 [Compound I-421]
20,358 nM,CC(=O)N[C@@H](C)CO[C@H]1C[C@H](COc2nccc(OC3CC(F)(F)C3)c2Cl)C1 [Compound I-422]
21,122 nM,CC(=O)N[C@@H](C)CO[C@H]1C[C@H](COc2nsc3ccccc23)C1 [Compound I-424]
22,170 nM,CC(=O)N[C@@H](C)CO[C@H]1C[C@H](COc2ncnc3c2c(I)cn3CC2CC2)C1 [Compound I-425]
23,57 nM,CC(=O)N[C@@H](C)CO[C@H]1C[C@H](COc2ncnc3c2c(C)cn3CC2CC2)C1 [Compound I-426]
24,270 nM,CC(=O)N[C@@H](C)CO[C@H]1C[C@H](COc2ncnc3c2c(C#N)cn3CC2CC2)C1 [Compound I-427]

row,IC50,Compound
1,53 nM,CC(=O)N[C@@H](C)CO[C@H]1C[C@H](COc2nccc3c2cnn3CC2CCC2)C1 [Compound I-428]
2,26 nM,CC(=O)N[C@@H](C)CO[C@H]1C[C@H](COc2ncnc(COc3ccccc3)c2Cl)C1 [Compound I-429]
3,12 nM,CC(=O)N[C@@H](C)CO[C@H]1C[C@H](COc2ncnc3c2ccn3Cc2ccccc2)C1 [Compound I-430]
4,809 nM,CC(=O)N[C@@H](C)CO[C@H]1C[C@H](COc2ncnc(OCc3ncco3)c2Cl)C1 [Compound I-431]
5,588 nM,CC(=O)N[C@@H](C)CO[C@H]1C[C@H](COc2ncnc3c2ccn3Cc2ccccn2)C1 [Compound I-432]
6,11 nM,CC(=O)N[C@@H](C)CO[C@H]1C[C@H](COc2nccc(NC(=O)C3CCCCC3)c2Cl)C1 [Compound I-433]
7,653 nM,CC(=O)N[C@@H](C)CO[C@H]1C[C@H](COc2ncnc3c2ccn3Cc2cccnc2)C1 [Compound I-434]
8,7 nM,CC(=O)N[C@@H](C)CO[C@H]1C[C@H](COc2ncnc(OCc3ccccn3)c2Cl)C1 [Compound I-435]
9,4 nM,CC(=O)N[C@@H](C)CO[C@H]1C[C@@H](COc2ncnc(OCc3ccccn3)c2Cl)C1 [Compound I-436]
10,19 nM,CC(=O)N[C@@H](C)CO[C@H]1C[C@H](COc2ncnc(OCc3cc(C(F)(F)F)ccn3)c2Cl)C1 [Compound I-437]
11,4 nM,CC(=O)N[C@@H](C)CO[C@H]1C[C@H](COc2ncnc(OCc3ncc(Cl)s3)c2Cl)C1 [Compound I-439]
12,19 nM,CC(=O)N[C@@H](C)CO[C@H]1C[C@H](COc2ncnc3c2c(F)cn3CC2CC2(F)F)C1 (some centres unmarked) [Compound I-440]
13,12 nM,CC(=O)N[C@@H](C)CO[C@H]1C[C@H](COc2ncnc(OCc3ncc(F)s3)c2Cl)C1 [Compound I-441]
14,35 nM,CC(=O)N[C@@H](C)CO[C@H]1C[C@H](Oc2nccc3c(OCC4CC4)nccc23)C1 [Compound I-442]
15,240 nM,CC(=O)N[C@@H](C)CO[C@H]1C[C@H](COc2ncnc(OCc3nnc(C(F)(F)F)s3)c2Cl)C1 [Compound I-443]
16,51 nM,CC(=O)N[C@@H](C)CO[C@H]1C[C@H](COc2ncnc3c2ccn3CCC2CC2)C1 [Compound I-444]
17,14 nM,CC(=O)N[C@@H](C)CO[C@H]1C[C@H](Oc2nccc3c(OCc4ccccc4)nccc23)C1 [Compound I-445]
18,77 nM,CC(=O)N[C@@H](C)CO[C@H]1CC[C@H](Oc2ncnc(OCc3ccc(F)cn3)c2Cl)CC1 [Compound I-446]
19,76 nM,CC(=O)N[C@@H](C)CO[C@H]1C[C@H](COc2nc(C)nc3c2ccn3CC2CC2)C1 [Compound I-447]
20,400 nM,CC(=O)N[C@@H](C)CO[C@H]1C[C@H](COc2ncnc3c2ccn3-c2ccccc2)C1 [Compound I-448]
21,51 nM,CC(=O)N[C@@H](C)CO[C@H]1C[C@H](COc2ncnc3c2ccn3CC2CCCCC2)C1 [Compound I-449]
22,14 nM,CC(=O)N[C@@H](C)CO[C@H]1C[C@H](COc2ncnc3c2c(F)cn3CC2CC2)C1 [Compound I-450]
23,40 nM,CC(=O)N[C@@H](C)CO[C@H]1C[C@H](COc2ncnc3c2ccn3C2CCCCC2)C1 [Compound I-451]
24,109 nM,CC(=O)N[C@@H](C)CO[C@H]1C[C@H](COc2ncnc(NC(=O)c3ccccc3)c2Cl)C1 [Compound I-452]

row,IC50,Compound
1,610 nM,CCn1ccc2c(OC[C@H]3C[C@H](OC[C@H](C)NC(C)=O)C3)ncnc21 [Compound I-453]
2,87 nM,CC(=O)N[C@@H](C)CO[C@H]1C[C@H](COc2ncnc3c2cc(C)n3CC2CC2)C1 [Compound I-454]
3,50 nM,CC(=O)N[C@@H](C)CO[C@H]1CC[C@H](Oc2ncnc(OCc3ncc(Cl)s3)c2Cl)CC1 [Compound I-455]
4,280 nM,CC(=O)N[C@@H](C)CO[C@H]1C[C@H](c2nc3cnc(OCc4ccccc4)cc3o2)C1 [Compound I-456]
5,19 nM,CC(=O)N[C@@H](C)CO[C@]1(C)C[C@@H](COc2ncnc(OCc3ccc(F)cn3)c2Cl)C1 [Compound I-457]
6,32 nM,CC(=O)N[C@@H](C)CO[C@H]1C[C@H](COc2nccc3c2CCN3CC2CC2)C1 [Compound I-458]
7,16 nM,CC(=O)N[C@@H](C)CO[C@H]1C[C@H](COc2ncnc(OCc3ccc(F)cn3)c2F)C1 [Compound I-459]
8,4 nM,CC(=O)N[C@@H](C)CO[C@H]1C[C@H](COc2ncnc(OCc3cc(Cl)ccn3)c2F)C1 [Compound I-460]
9,4 nM,CC(=O)N[C@@H](C)CO[C@H]1C[C@H](COc2ncnc(OCc3ccc(F)cc3)c2F)C1 [Compound I-461]
10,90 nM,CC(=O)N[C@@H](C)CO[C@H]1C[C@H](COc2ncnc(-c3nc4ccccc4o3)c2Cl)C1 [Compound I-462]
11,17 nM,CC(=O)N[C@@H](C)CO[C@H]1C[C@H](COc2ncnc(OCC3CCCCO3)c2Cl)C1 (some centres unmarked) [Compound I-463]
12,36 nM,CC(=O)N[C@@H](C)CO[C@H]1C[C@H](COc2ncnc(OCc3cncs3)c2Cl)C1 [Compound I-464]
13,160 nM,CC(=O)N[C@@H](C)CO[C@H]1C[C@H](COc2nccc3c2cnn3CC2CC2(F)F)C1 (some centres unmarked) [Compound I-465]
14,179 nM,CC(=O)N[C@@H](C)CO[C@H]1C[C@H](COc2ncnc(OC3(c4ccccc4)CC3)c2Cl)C1 [Compound I-466]
15,7 nM,CC(=O)N[C@@H](C)CO[C@H]1C[C@H](COc2ncnc(OCc3ccc(Cl)cn3)c2F)C1 [Compound I-467]
16,368 nM,CC(=O)N[C@@H](C)CO[C@H]1C[C@H](COc2ncnc(NC(=O)C3CCCCC3)c2Cl)C1 [Compound I-468]
17,596 nM,CC(=O)N[C@@H](C)CO[C@H]1C[C@H](Cn2ccc3c(OCc4ccccc4)ncnc32)C1 [Compound I-469]
18,426 nM,CC(=O)N[C@@H](C)CO[C@H]1C[C@H](Cn2ccc3c(OCc4cc(Cl)ccn4)ncnc32)C1 [Compound I-470]
19,159 nM,CC(=O)N[C@@H](C)CO[C@H]1C[C@H](COc2ncnc3c2ccn3C(C)C)C1 [Compound I-471]
20,26 nM,CC(=O)N[C@@H](C)CO[C@H]1C[C@H](COc2ncnc3c2ccn3Cc2ccccc2F)C1 [Compound I-472]
21,28 nM,CC(=O)N[C@@H](C)CO[C@H]1C[C@H](COc2ncnc3c2ccn3Cc2cccc(F)c2)C1 [Compound I-473]
22,16 nM,CC(=O)N[C@@H](C)CO[C@H]1C[C@H](COc2ncnc3c2ccn3Cc2ccc(F)cc2)C1 [Compound I-474]
23,540 nM,CC(=O)N[C@@H](C)CO[C@H]1C[C@H](COc2ccc3nc(OC4CC4)n(C)c3n2)C1 [Compound I-475]
